Data on 5 compounds can be found in paper PMC6050590 (Nature, 2017).

In one data set the target is dopamine transporter (Homo sapiens, UniProt Q01959). Description: Non-epigenetic target panel, dopamine transporter binding. Conditions: at 10 µM.
The next data set deals with serotonin transporter (Homo sapiens, UniProt P31645). In words: Non-epigenetic target panel, serotonin transporter binding. The settings on record: at 10 µM.
Data set [1] addresses T1, p300-BHC (Homo sapiens, UniProt Q09472). Description: AlphaLISA-based peptide substrate binding assay.
The next data set has as its system 22Rv1 cells. In words: Proliferation of androgen depleted 22Rv1 cells. The format is cell-based. Conditions: absence of androgens.
Data set [2] has as its system PSA expression in LnCaP-FGC cells. In words: qRT-PCR of DHT-stimulated PSA expression in LnCaP-FGC cells. The format is cell-based. Conditions: 7 h and 24 h. In general terms: Real-time PCR tracks product formation cycle by cycle.
The test system of data set [3] is PSA expression in 22Rv1 cells. In words: qRT-PCR of PSA expression in androgen depleted 22Rv1 cells. The format is cell-based. Conditions: absence of androgens, 7 h and 24 h.
Data set [4] has as its system H3K27Ac and AR occupancy at the PSA enhancer, LnCaP-FGC cells. Description: ChIP at the PSA enhancer in DHT-stimulated LnCaP-FGC cells. It counts as cell-based. Conditions: DHT 6 h.
The test system of data set [5] is c-Myc expression in 22Rv1 cells. In words: c-Myc expression in androgen depleted 22Rv1 cells. It counts as cell-based.
In the next data set the test system is LuCaP-77 CR xenograft. Description: LuCaP-77 CR castration resistant prostate cancer xenograft model. The format is in vivo, SCID male mice. The settings on record: 7 days dosing, 3 h post-dosing.
A further data set can be described thus: Brain exposure. The settings on record: in vivo.
A further data set has as its target PCAF (Homo sapiens, UniProt Q92831). Description: HAT family selectivity, PCAF. Conditions: at 10 µM.
For a further data set, the target named is HAT1 (Homo sapiens, UniProt O14929). In words: HAT family selectivity, HAT1. The settings on record: at 10 µM.
HAT1, sequence (O14929 whole entry): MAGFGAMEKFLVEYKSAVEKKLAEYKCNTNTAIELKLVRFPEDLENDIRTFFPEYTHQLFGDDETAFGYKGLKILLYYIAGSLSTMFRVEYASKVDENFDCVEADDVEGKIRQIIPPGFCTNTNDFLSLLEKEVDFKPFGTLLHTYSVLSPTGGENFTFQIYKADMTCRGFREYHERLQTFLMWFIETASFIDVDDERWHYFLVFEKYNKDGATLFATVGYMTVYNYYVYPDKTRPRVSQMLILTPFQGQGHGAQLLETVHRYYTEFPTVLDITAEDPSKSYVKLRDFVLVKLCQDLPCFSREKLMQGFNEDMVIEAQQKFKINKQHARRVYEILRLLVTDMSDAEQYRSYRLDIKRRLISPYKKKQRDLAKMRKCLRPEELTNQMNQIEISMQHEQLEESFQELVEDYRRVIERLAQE
A further data set concerns the target MYST3 (Homo sapiens, UniProt Q92794). In words: HAT family selectivity, MYST3. Conditions: at 10 µM.
The target of the next data set is MYST4 (Homo sapiens, UniProt Q8WYB5). Description: HAT family selectivity, MYST4. The settings on record: at 10 µM.
A further data set addresses TIP60 (Homo sapiens, UniProt Q92993). In words: HAT family selectivity, TIP60. The settings on record: at 10 µM.
For a further data set, the target named is GCN5L2 (Homo sapiens, UniProt Q92830). Description: HAT family selectivity, GCN5L2. The settings on record: at 10 µM.
GCN5L2, sequence (Q92830 whole entry): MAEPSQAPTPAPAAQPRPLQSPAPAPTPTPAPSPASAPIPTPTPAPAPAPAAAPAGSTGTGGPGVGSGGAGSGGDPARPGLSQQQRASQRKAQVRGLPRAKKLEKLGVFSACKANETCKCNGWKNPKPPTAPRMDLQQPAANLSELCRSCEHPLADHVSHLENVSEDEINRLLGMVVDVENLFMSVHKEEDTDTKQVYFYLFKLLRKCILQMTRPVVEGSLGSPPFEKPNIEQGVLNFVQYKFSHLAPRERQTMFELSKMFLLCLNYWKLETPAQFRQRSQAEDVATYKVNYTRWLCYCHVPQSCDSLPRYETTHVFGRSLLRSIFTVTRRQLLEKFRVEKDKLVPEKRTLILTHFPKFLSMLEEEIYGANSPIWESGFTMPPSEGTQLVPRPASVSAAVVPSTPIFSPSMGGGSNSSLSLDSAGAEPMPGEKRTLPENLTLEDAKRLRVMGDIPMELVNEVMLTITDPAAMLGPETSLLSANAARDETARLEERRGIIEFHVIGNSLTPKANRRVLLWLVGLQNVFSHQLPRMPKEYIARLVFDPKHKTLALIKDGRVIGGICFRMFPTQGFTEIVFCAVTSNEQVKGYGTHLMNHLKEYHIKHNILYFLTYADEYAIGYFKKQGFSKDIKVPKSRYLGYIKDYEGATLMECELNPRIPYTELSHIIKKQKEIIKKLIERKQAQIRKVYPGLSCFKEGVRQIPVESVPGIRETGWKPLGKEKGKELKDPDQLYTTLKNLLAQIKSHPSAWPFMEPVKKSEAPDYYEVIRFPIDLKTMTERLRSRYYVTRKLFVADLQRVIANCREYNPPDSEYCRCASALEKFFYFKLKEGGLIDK
Another data set deals with H3K9Ac in PC-3 cells. In words: High content microscopy of H3K9Ac in PC-3 cells. The settings on record: Homo sapiens, PC-3, 3 h, read-out: EC50, decrease of H3K9Ac.
Data set [6] concerns AR+ prostate cancer cell lines. In words: Cell proliferation of prostate cancer cell lines.
The next data set has as its system H3K27Ac in PC-3 cells. Description: High content microscopy of H3K27Ac in PC-3 cells. It counts as cell-based.
In the next data set the target is p300-HAT (Homo sapiens, UniProt Q09472). In words: Surface plasmon resonance binding to p300-HAT. The settings on record: SPR. A general note: SPR reads the build-up and loss of mass on a sensor chip optically.
p300-HAT, sequence (Q09472 1287-1663 limits assumed): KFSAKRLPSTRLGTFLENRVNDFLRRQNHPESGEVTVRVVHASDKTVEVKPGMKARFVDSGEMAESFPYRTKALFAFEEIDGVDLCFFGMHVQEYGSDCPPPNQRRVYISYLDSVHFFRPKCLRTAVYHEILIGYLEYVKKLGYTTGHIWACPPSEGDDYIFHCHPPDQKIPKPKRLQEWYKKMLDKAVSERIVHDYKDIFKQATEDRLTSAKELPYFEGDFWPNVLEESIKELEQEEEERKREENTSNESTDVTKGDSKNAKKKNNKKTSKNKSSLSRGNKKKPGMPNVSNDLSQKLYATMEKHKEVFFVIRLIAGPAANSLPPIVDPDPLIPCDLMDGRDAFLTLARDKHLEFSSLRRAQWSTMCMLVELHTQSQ
Data set [7] has as its target p300-BHC (bromodomain-HAT-C/H3) domain (Homo sapiens, UniProt Q09472). The settings on record: toward p300 and CBP.
Data set [8] concerns the target T1, p300-BHC. In words: Thermal shift assay with p300-BHC.
Data set [9] deals with DHT responsive genes in 22Rv1 cells. It counts as cell-based. The settings on record: androgen depleted 22Rv1 cells.

T1 sequence (Q09472 1049-1809 limits assumed): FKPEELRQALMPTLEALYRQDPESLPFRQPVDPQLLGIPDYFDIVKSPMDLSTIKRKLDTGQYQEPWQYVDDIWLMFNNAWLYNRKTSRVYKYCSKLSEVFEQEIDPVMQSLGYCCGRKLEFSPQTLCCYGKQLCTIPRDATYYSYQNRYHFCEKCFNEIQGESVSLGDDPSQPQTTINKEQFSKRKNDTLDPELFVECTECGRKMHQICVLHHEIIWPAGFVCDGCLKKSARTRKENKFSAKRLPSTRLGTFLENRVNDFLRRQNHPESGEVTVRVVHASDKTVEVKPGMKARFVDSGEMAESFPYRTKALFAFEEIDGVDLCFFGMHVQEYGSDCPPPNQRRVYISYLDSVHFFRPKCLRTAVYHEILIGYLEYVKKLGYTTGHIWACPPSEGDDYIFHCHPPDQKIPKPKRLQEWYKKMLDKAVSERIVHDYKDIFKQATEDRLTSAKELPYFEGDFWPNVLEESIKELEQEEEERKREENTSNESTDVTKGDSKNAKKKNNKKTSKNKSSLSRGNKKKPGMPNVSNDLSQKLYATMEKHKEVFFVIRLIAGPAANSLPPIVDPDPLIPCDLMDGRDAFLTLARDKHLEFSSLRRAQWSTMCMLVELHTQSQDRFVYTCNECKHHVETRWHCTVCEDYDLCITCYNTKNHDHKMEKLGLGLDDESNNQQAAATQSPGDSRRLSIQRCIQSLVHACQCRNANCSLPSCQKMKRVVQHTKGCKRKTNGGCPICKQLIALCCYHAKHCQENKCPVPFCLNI
serotonin transporter, sequence (P31645 whole entry): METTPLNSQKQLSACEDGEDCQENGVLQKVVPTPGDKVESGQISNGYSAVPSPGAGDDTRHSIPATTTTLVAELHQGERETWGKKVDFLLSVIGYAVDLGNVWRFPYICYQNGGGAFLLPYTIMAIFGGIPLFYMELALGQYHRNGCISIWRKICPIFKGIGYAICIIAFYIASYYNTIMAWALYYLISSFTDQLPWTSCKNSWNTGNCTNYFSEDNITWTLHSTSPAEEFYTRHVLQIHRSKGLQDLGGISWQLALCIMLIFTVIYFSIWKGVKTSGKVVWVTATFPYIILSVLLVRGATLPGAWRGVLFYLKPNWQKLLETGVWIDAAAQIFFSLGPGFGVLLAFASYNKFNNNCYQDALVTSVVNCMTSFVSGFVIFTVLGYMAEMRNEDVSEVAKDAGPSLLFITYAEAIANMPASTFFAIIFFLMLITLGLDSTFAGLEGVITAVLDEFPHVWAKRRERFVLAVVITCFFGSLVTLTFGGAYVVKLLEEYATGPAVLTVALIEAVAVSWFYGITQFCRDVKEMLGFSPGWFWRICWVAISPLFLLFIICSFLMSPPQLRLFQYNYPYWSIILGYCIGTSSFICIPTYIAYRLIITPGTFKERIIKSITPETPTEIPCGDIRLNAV
p300-BHC (bromodomain-HAT-C/H3) domain, sequence (Q09472 1049-1809 limits assumed): as the sequence (Q09472 1049-1809 limits assumed) above
TIP60, sequence (Q92993 whole entry): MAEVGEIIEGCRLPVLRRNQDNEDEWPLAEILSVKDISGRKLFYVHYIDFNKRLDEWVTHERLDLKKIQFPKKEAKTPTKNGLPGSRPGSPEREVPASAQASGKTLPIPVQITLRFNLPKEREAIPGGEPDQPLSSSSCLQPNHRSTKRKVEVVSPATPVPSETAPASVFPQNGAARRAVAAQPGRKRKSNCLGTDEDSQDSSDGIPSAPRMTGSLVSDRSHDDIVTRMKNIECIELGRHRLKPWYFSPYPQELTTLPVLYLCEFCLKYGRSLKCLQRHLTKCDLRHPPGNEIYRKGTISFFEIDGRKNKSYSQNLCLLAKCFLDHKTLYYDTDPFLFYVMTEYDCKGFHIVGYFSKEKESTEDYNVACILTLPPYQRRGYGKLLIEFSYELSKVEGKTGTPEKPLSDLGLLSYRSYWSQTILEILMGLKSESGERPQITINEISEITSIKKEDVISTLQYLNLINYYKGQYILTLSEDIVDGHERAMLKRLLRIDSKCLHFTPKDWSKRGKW
PCAF, sequence (Q92831 whole entry): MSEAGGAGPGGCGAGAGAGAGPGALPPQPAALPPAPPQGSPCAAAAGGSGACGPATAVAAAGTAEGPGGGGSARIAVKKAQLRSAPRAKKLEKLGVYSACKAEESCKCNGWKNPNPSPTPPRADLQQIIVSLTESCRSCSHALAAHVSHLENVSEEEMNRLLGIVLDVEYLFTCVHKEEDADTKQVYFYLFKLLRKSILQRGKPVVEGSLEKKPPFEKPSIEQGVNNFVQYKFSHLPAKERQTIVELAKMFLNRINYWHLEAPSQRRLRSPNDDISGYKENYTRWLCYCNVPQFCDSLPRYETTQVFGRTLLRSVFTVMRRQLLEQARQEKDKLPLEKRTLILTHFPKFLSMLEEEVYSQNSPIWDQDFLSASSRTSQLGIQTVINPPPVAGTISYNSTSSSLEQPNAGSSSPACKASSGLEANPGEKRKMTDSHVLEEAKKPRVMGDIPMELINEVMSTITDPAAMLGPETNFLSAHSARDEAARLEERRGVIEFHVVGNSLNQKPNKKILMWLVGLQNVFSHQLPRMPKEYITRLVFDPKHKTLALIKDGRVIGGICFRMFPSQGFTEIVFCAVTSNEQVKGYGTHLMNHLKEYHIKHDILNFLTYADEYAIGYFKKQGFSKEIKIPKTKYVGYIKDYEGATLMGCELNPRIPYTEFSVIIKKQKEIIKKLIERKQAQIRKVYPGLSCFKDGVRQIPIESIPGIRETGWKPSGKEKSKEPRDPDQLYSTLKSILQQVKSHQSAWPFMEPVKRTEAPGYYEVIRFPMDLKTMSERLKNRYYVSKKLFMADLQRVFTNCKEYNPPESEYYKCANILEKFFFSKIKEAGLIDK
dopamine transporter, sequence (Q01959 whole entry): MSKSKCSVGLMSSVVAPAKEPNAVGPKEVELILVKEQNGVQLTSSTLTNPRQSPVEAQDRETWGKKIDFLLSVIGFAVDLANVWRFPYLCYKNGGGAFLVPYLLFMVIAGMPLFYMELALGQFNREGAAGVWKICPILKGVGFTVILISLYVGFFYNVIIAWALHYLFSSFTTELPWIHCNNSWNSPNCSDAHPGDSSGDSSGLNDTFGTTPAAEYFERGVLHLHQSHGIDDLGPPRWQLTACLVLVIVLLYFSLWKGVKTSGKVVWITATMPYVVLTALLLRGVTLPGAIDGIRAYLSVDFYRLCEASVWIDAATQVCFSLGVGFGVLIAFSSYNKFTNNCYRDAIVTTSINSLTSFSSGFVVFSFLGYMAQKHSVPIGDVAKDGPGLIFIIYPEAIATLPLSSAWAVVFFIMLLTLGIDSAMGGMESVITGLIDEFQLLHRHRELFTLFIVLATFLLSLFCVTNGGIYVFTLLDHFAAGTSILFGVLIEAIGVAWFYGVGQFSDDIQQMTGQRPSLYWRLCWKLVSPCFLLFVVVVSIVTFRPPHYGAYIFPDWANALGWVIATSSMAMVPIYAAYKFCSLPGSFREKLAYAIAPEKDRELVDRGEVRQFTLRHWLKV

The EC50 is the midpoint of the concentration-response curve. In the case of `CNC(=O)Nc1ccc2c(c1)CC[C@@]21OC(=O)N(CC(=O)N(Cc2ccc(F)cc2)[C@@H](C)C(F)(F)F)C1=O` [Compound A-485], the “binding to dopamine transporter” value at dopamine transporter is more than 90%. The “binding to serotonin transporter” value on serotonin transporter is recorded as more than 90%. Moreover, at p300-BHC [1], the “competition with peptide substrate binding” value is “not competitive with the peptide substrate”. In addition, the values for the inhibition of proliferation entry (in the data set with 22Rv1 cells; in data set [6]) were “inhibited proliferation” and “potent inhibition of proliferation”, respectively. The “DHT-stimulated PSA expression” value in [2] was “attenuated DHT-stimulated PSA expression more potently than the AR antagonist enzalutamide”. Also, the PSA expression entry in data set [3] is on record as “decreased PSA expression”. In data set [4], the “H3K27Ac at the PSA enhancer” value was “reduced H3K27Ac binding”. The c-Myc expression entry in data set [5] is recorded as “robustly decreased”. The “tumor mRNA levels of SLC45A3 and c-Myc” value in the data set with LuCaP-77 CR xenograft is given as “decrease”. Moreover, the brain exposure result in the data set “Brain exposure” was “does not achieve significant brain exposure”. The “inhibition of PCAF activity” value against PCAF is reported as “did not inhibit”. Besides, the “inhibition of HAT1 activity” value on HAT1 was “did not inhibit”. Besides, at MYST3, the “inhibition of MYST3 activity” value is given as “did not inhibit”. The “inhibition of MYST4 activity” value against MYST4 is “did not inhibit”. For the same compound, the “inhibition of TIP60 activity” value on TIP60 was “did not inhibit”. Besides, the “inhibition of GCN5L2 activity” value against GCN5L2 was “did not inhibit”. Besides, the EC50 with H3K9Ac in PC-3 cells was more than 10 µM.

For `CNC(=O)Nc1ccc2c(c1)[C@@]1(CC2)OC(=O)N(CC(=O)N(Cc2ccc(F)cc2)[C@@H](C)C(F)(F)F)C1=O` [Compound A-486], the “effect on H3K27Ac, in words” value in the data set with H3K27Ac in PC-3 cells was “inactive”. The inhibition of proliferation result with 22Rv1 cells is “inactive”. The PSA expression entry in data set [3] is “inactive”. In addition, the “fold weaker binding than A-485” value at p300-HAT is listed as ~ 1,000 fold. In addition, the “fold less potent than A-485” value in data set [7] was ~ 1000 fold.

In the case of `CC1=NN(c2ccc(C(=O)O)cc2)C(=O)/C1=C\c1ccc(-c2cc(C)c(C)cc2[N+](=O)[O-])o1` [Compound C646, reference compound], in the data set with H3K27Ac in PC-3 cells, the “effect on H3K27Ac, in words” value is recorded as “only modest inhibition”.

Take `CC(=O)N[C@@H](CCCCNC(=O)CSCCNC(=O)CCNC(=O)[C@H](O)C(C)(C)COP(=O)(O)OP(=O)(O)OC[C@H]1O[C@@H](n2cnc3c(N)ncnc32)[C@H](O)[C@@H]1OP(=O)(O)O)C(N)=O` [Lys-CoA]: on p300-BHC [8], the “increase of thermostability of p300-BHC” value amounted to 5.8 °C.

As for `CNC(=O)c1ccc(N2C(=S)N(c3ccc(C#N)c(C(F)(F)F)c3)C(=O)C2(C)C)cc1F` [enzalutamide, reference compound], the inhibition of proliferation entry in the data set on 22Rv1 cells was “inactive”. In data set [3], the PSA expression result was “inactive”. In [4], the “AR occupancy at the PSA enhancer” value is on record as “decreased AR occupancy” and the “H3K27Ac at the PSA enhancer” value is on record as “reduced H3K27Ac binding”. Further, the “effect on DHT responsive genes, in words” value in [9] was “inactive”. Moreover, the c-Myc expression entry in data set [5] is listed as “no effect”.
